From US20230348398A1 (Hoffmann-La Roche Inc., priority 2020, published 2023) come the findings set out here.

Each structure is given as a SMILES string.

The target in the test is human cGAS (residues 161-522) (Homo sapiens (Human), UniProt Q8N884). Put plainly: Malachite Green assay to measure cGAS activity (coupled enzymatic assay, phosphate detection). Type of test: biochemical. The settings on record: recombinant human cGAS (residues 161-522) 25 nM, 80 μM GTP, 100 nM ISD, 4 hour at RT, absorbance 620 nm. The method, then: Malachite Green Assay to Measure cGAS Activity Compounds were tested for cGAS inhibition in a coupled enzymatic assay based on Phosphate detection by Malachite Green. Final assay conditions were 20 mM TRIS pH 7.5 (Applichem), 5 mM MgCl2 (Sigma) and 0.01% BSA (Sigma) supplemented with […] (Sigma), 80 μM GTP (Sigma) and 100 nM Interferon Stimulating DNA (ISD) (Microsynth). Recombinantly expressed purified human cGAS (residues 161-522) was used at 25 nM. All compounds were prepared as 10 mM stock solutions in DMSO and a 16 pt dilution series in DMSO with a dilution factor of 2.5 was prepared. 1 μL of DMSO dilution series was transferred to 32.3 μL reaction buffer, mixed by pipetting up/down, spun for 1 minute at 3000 rpm and was visually inspected for precipitation. 5 μL of 3-fold enzyme stock solution were transferred to an empty 384-well Black/Clear Flat Bottom Polystyrene NBS (Corning) rows 3-24. Rows 1-2 were filled with assay buffer. Plates were spun 10 seconds at 1000 rpm (164×g). 5 μL of compound intermediate dilution was added and mixed by pipetting up/down to rows 3-24. Rows 1-2 were filled with 3.1% DMSO assay buffer. Plates were spun 10 seconds at 1000 rpm (164×g). 5 μL 3-fold Nucleotide/DNA mix was added to all wells to start the reaction. Plates were spun 10 seconds at 1000 rpm (164×g) and incubated for 4 hour at room temperature (RT) in the dark. 5 μL 4 U/mL PPase (Sigma) were added to all wells. Plates spun 10 seconds at 1000 rpm (164×g). 10 μL BioMol green Solution (Enzo Life Sciences) was added to all wells. Plates spun 10 seconds at 1000 rpm (164×g) and incubated 30 minutes at RT in the dark. Absorbance data was collected 620 nm on an EnVision Multilable Reader (Perkin Elmer) and the following measurement settings were used: excitation filter photometric was 620 nm; excitation from the top; measurement height was 1 mm; number of flashes was 30; number of flashes integrated was 1. All plates are checked for abnormalities and outliers in the Blank Control (no protein, row 1) and the Neutral Control (no compound, row 2) are excluded using the 3*SD rule. Data was normalized to 0 and 100% by Blank and Neutral Control and each curve was fitted and judged using the 4 parameter logistic equation to determine the IC50 for cGAS inhibition. Table 1 provides IC50 values (μM) for cGAS inhibition obtained for particular examples of the present invention as measured by the above-described assay.
human cGAS (residues 161-522), sequence (Q8N884 161-522): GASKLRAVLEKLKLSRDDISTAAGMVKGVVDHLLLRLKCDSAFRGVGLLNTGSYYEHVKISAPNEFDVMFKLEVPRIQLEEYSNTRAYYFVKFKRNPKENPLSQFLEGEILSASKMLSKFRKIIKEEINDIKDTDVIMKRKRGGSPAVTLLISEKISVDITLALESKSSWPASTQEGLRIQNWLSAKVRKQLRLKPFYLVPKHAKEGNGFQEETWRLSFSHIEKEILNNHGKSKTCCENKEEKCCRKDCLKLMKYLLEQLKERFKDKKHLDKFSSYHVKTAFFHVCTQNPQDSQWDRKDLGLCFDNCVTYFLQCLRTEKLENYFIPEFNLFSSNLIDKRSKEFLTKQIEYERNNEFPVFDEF
Regarding `O=C(O)c1cc(-c2ccc(C3CC3)cc2Cl)cc2[nH]cnc12` [Example 1, 6-(2-Chloro-4-cyclopropylphenyl)-1-benzimidazole-4-carboxylic acid], the IC50 turned out to be 4.68 µM.
In the case of `Cc1cc(Cl)c(-c2cc(C(=O)O)c3nc[nH]c3c2)cc1F` [Example 2, 6-(2-Chloro-5-fluoro-4-methylphenyl)-1H-benzo[d]imidazole-4-carboxylic acid], the IC50 is 0.54 µM.
`Cc1ccc(-c2cc(C(=O)O)c3nc[nH]c3c2)c(Cl)c1` [Example 3, 6-(2-Chloro-4-methylphenyl)-1H-benzo[d]imidazole-4-carboxylic acid]: the IC50 came to 0.55 µM.
Take `CCOc1ccc(-c2cc(C(=O)O)c3nc[nH]c3c2)c(Cl)c1` [Example 4, 6-(2-Chloro-4-ethoxyphenyl)-1H-benzo[d]imidazole-4-carboxylic acid]: the IC50 turned out to be 4.37 µM.
As to `O=C(O)c1cc(-c2ccc(C(F)(F)F)cc2Cl)cc2[nH]cnc12` [Example 5, 6-(2-Chloro-4-(trifluoromethyl)phenyl)-1H-benzo[d]imidazole-4-carboxylic acid], the IC50 worked out at 3.26 µM.
Turning to `Cc1cc(Cl)ccc1-c1cc(C(=O)O)c2nc[nH]c2c1` [Example 6, 6-(4-Chloro-2-methylphenyl)-1H-benzo[d]imidazole-4-carboxylic acid], the concentration for half-maximal inhibition (IC50) was 2.08 µM.
With `Cc1ccc(-c2cc(C(=O)O)c3nc(CN4CCN5C(=O)CCC5C4)[nH]c3c2)c(Cl)c1` (stereo not drawn) [Example 7, 6-(2-Chloro-4-methylphenyl)-2-[(6-oxo-1,3,4,7,8,8a-hexahydropyrrolo[1,2-a]pyrazin-2-yl)methyl]-1H-benzimidazole-4-carboxylic acid] the figure was 0.26 µM.
Then `Cc1ccc(-c2cc(C(=O)O)c3nc(CN4CCN(CC(F)(F)F)CC4)[nH]c3c2)c(Cl)c1` [Example 8, 6-(2-Chloro-4-methylphenyl)-2-((4-(2,2,2-trifluoroethyl)piperazin-1-yl)methyl)-1H-benzo[d]imidazole-4-carboxylic acid], with 0.59 µM; and `Cc1ccc(-c2cc(C(=O)O)c3nc(CN4CCN(C5CC5)CC4)[nH]c3c2)c(Cl)c1` [Example 9, 6-(2-Chloro-4-methylphenyl)-2-[(4-cyclopropylpiperazin-1-yl)methyl]-1H-benzimidazole-4-carboxylic acid], with 0.38 µM.
Turning to `Cc1ccc(-c2cc(C(=O)O)c3nc(CN4CCN(Cc5ccccc5)C(=O)C4)[nH]c3c2)c(Cl)c1` [Example 10, 2-[(4-Benzyl-3-oxopiperazin-1-yl)methyl]-6-(2-chloro-4-methylphenyl)-1H-benzimidazole-4-carboxylic acid], the IC50 worked out at 0.51 µM.
Take `Cc1ccc(-c2cc(C(=O)O)c3nc(CN4CCNC(C(F)(F)F)C4)[nH]c3c2)c(Cl)c1` (stereo not drawn) [Example 11, 6-(2-Chloro-4-methylphenyl)-2-[[3-(trifluoromethyl)piperazin-1-yl]methyl]-1H-benzimidazole-4-carboxylic acid]: the IC50 stood at 0.6 µM.
Then `Cc1ccc(-c2cc(C(=O)O)c3nc(CN4CCN(C)CC4=O)[nH]c3c2)c(Cl)c1` [Example 12, 6-(2-Chloro-4-methylphenyl)-2-[(4-methyl-2-oxopiperazin-1-yl)methyl]-1H-benzimidazole-4-carboxylic acid], with 1.14 µM; and `Cc1ccc(-c2cc(C(=O)O)c3nc(CO)[nH]c3c2)c(Cl)c1` [Example 13, 6-(2-Chloro-4-methylphenyl)-2-(hydroxymethyl)-1H-benzimidazole-4-carboxylic acid], with 0.55 µM; and `Cc1ccc(-c2cc(C(=O)O)c3nc(Nc4ccccc4)[nH]c3c2)c(Cl)c1` [Example 14, 6-(2-Chloro-4-methylphenyl)-2-(phenylamino)-1H-benzo[d]imidazole-4-carboxylic acid], with 1.16 µM.
`Cc1ccc(-c2cc(C(=O)O)c3nc(CN4CCC(F)(F)CC4)[nH]c3c2)c(Cl)c1` [Example 15, 6-(2-Chloro-4-methylphenyl)-2-[(4,4-difluoropiperidin-1-yl)methyl]-1H-benzimidazole-4-carboxylic acid]: the IC50 amounted to 0.26 µM.
As for `CC(=O)N1CCN(Cc2nc3c(C(=O)O)cc(-c4ccc(C)cc4Cl)cc3[nH]2)CC1` [Example 16, 2-[(4-Acetylpiperazin-1-yl)methyl]-6-(2-chloro-4-methylphenyl)-1H-benzimidazole-4-carboxylic acid], the IC50 worked out at 1.51 µM.
In the case of `Cc1ccc(-c2cc(C(=O)O)c3nc(CN(C)c4ccccc4)[nH]c3c2)c(Cl)c1` [Example 17, 6-(2-Chloro-4-methylphenyl)-2-[(N-methylanilino)methyl]-1H-benzimidazole-4-carboxylic acid], the IC50 stood at 1.23 µM.
For `Cc1ccc(-c2cc(C(=O)O)c3nc(CN4CCN(Cc5ccccc5)CC4)[nH]c3c2)c(Cl)c1` [Example 18, 2-[(4-Benzylpiperazin-1-yl)methyl]-6-(2-chloro-4-methylphenyl)-1H-benzimidazole-4-carboxylic acid], the IC50 stood at 0.14 µM.
In the case of `Cc1ccc(-c2cc(C(=O)O)c3nc(CN4CCN(c5ccccc5)CC4)[nH]c3c2)c(Cl)c1` [Example 19, 6-(2-Chloro-4-methylphenyl)-2-[(4-phenylpiperazin-1-yl)methyl]-1H-benzimidazole-4-carboxylic acid], the IC50 came to 1.25 µM.
Regarding `Cc1ccc(-c2cc(C(=O)O)c3nc(CN4CCNC(=O)C4)[nH]c3c2)c(Cl)c1` [Example 20, 6-(2-Chloro-4-methylphenyl)-2-[(3-oxopiperazin-1-yl)methyl]-1H-benzimidazole-4-carboxylic acid], the IC50 came out at 0.59 µM.
With `Cc1ccc(-c2cc(C(=O)O)c3nc(CN4CCC(O)CC4)[nH]c3c2)c(Cl)c1` [Example 21, 6-(2-Chloro-4-methylphenyl)-2-[(4-hydroxypiperidin-1-yl)methyl]-1H-benzimidazole-4-carboxylic acid], the IC50 amounted to 0.41 µM.
Regarding `Cc1ccc(-c2cc(C(=O)O)c3nc(CN4CCN(C)CC4)[nH]c3c2)c(Cl)c1` [Example 22, 6-(2-Chloro-4-methylphenyl)-2-[(4-methylpiperazin-1-yl)methyl]-1-benzimidazole-4-carboxylic acid], the IC50 is 0.13 µM.
For `CCN(CC)Cc1nc2c(C(=O)O)cc(-c3ccc(C)cc3Cl)cc2[nH]1` [Example 23, 6-(2-Chloro-4-methylphenyl)-2-(diethylaminomethyl)-1-benzimidazole-4-carboxylic acid], the IC50 was found to be 0.48 µM.
With `Cc1ccc(-c2cc(C(=O)O)c3nc(CN4CCCCC4)[nH]c3c2)c(Cl)c1` [Example 24, 6-(2-Chloro-4-methylphenyl)-2-(piperidin-1-ylmethyl)-1H-benzimidazole-4-carboxylic acid], the IC50 turned out to be 0.36 µM.
As for `Cc1ccc(-c2cc(C(=O)O)c3nc(CNc4ccccc4)[nH]c3c2)c(Cl)c1` [Example 25, 2-(Anilinomethyl)-6-(2-chloro-4-methylphenyl)-1H-benzimidazole-4-carboxylic acid], the IC50 amounted to 0.69 µM.
Consider `Cc1ccc(-c2cc(C(=O)O)c3nc(Cc4ccccc4)[nH]c3c2)c(Cl)c1` [Example 26, 2-Benzyl-6-(2-chloro-4-methylphenyl)-1H-benzo[d]imidazole-4-carboxylic acid], for which the IC50 worked out at 1.02 µM.
On to `Cc1ccc(-c2cc(C(=O)O)c3nc(Cc4ccc(Cl)cc4)[nH]c3c2)c(Cl)c1` [Example 27, 6-(2-Chloro-4-methylphenyl)-2-[(4-chlorophenyl)methyl]-1H-benzimidazole-4-carboxylic acid], for which the IC50 was 1.48 µM.
